From PMC7377239, “Cardiovascular Effects of Polychlorinated Biphenyls and Their Major Metabolites” (Environmental Health Perspectives, 2020)
Like-named read-outs stand apart in the source and are kept apart here.

System: iCell endothelial cells (human iPSC-derived ECs)
Experiment: Tube formation (tubulogenesis) assay in iCell endothelial cells, 18 h
Type: cell-based
Settings: Homo sapiens, Endothelial cell; for activity at 0.1 µM: 0.10 µM
Experimental: The culture conditions of iCell®-endothelial cells were as reported elsewhere ([Iwata et al. 2017]). Briefly, T75 flasks were coated with a fibronectin solution ( 3 μg/cm^2 ) followed by incubation for 1–2 h. Cells were thawed for 3 min in a 37°C water bath. Thawed cells were added to maintenance medium made of VascuLife VEGF Medium Complete Kit, excluding the supplied FBS, and iCell® Endothelial Cells Medium Supplement. The final formulation of the maintenance medium is detailed in ([Iwata et al. 2017]). The aliquoted fibronectin solution was aspirated from the T75 flasks, and cells were seeded at 1.0×10^4 cells/cm^2 . Cells were maintained at 37°C and 5% CO2 with media changes occurring every 2 d and passaged every 3–4 d using TrypLE™ Express. All experiments were conducted on cells between passages 1 and 5.
Tube formation assays were performed on Geltrex™ LDEV-free reduced growth factor basement membrane using both iCell®-endothelial cells and HUVECs in 384-well format exactly as detailed in Iwata et al. ([2017]). Negative controls included media-only and vehicle control (i.e., 0.5% vol/vol DMSO in cell culture media) wells. Positive assay controls were consistent with previously published reports ([Iwata et al. 2017]) and included TAB ( 50μM ) as a cytotoxic control, and nocodazole ( 0.01–1μM ), suramin ( 0.5–50μM ), histamine ( 0.1–100μM ), and chloroquine ( 1–500μM ) as chemicals associated with specific effects on ECs. Each test chemical was screened in triplicate for each concentration. Briefly, for iCell®-endothelial cells, starvation media consisted of VascuLife® basal medium with 4 mM L-glutamine LifeFactor and 0.1% iCell®-endothelial cells medium supplement. To counter dilution effects, a 2× concentration of the HUVEC maintenance medium supplemented with additional VEGF was created (EGM™-2 BulletKits™ at 2× concentration; also the VEGF component was replaced with 12.5 ng/mL VEGF). Geltrex™ LDEV-free reduced growth factor basement membrane was thawed overnight and dispensed into 384-well plates ( 10μL/well ) with tapping and rotating to evenly coat. The plates were incubated for 1 h in a cell culture incubator at 37°C and 5% CO2 . A 2× PCB plate (containing all of the PCBs and metabolites in dose–response) was prepared in basal media and added, 25μL per well, to the Geltrex™ coated plates. On separate plates, cells were seeded 7,500 (iPSC- ECs) or 3,500 (HUVEC) cells/well. Cells were exposed to chemicals overnight at 37°C and 5% CO2 and stained with 3× concentration of calcein AM ( 25μL /well, 6μmol/L ) for 15 min before imaging. Images were captured at 4× magnification with the FITC filter (calcein AM). Images were analyzed with the angiogenesis module software within MetaXpress™ (Molecular Devices).
Phenotypic responses were quantitatively assessed using concentration–response modeling as detailed elsewhere ([Sirenko et al. 2017]). Briefly, phenotypic readouts were normalized to vehicle controls and fit to a four-parameter logistic model in R studio software (version 3.1.1; R Development Core Team). Following EPA guidance on dose–response modeling, a cutoff of one standard deviation across means of vehicle control (i.e., 0.5% vol/vol DMSO in cell culture media) wells was applied to determine the point-of-departure (POD) values ([U.S. EPA 2012]). In the absence of a concentration–response, the highest tested concentration (i.e., 100μM ) was assigned as “no observable adverse effect level.” The concentration–response assessment R script, as well as templates for vehicle and concentration–response data, are available as a supplement to Sirenko et al. ([2017]). The ability of physicochemical properties to predict differences in PODs were evaluated by multiregression and mixed-effects modeling using R.

[1] = iPSC-EC, 0.00 µM = 100.00, read-out: endo.mtl.18hr
[2] = iPSC-EC, 0.00 µM = 100.00, read-out: endo.tlps.18hr
[3] = iPSC-EC, 0.00 µM = 100.00, read-out: endo.tta.18hr
[4] = iPSC-EC, 0.00 µM = 100.00, read-out: endo.ttl.18hr
[5] = iPSC-EC, 100.00 = highest concentration tested, read-out: endo.mtl.18hr POD
[6] = iPSC-EC, 100.00 = highest concentration tested, read-out: endo.tlps.18hr POD
[7] = iPSC-EC, 100.00 = highest concentration tested, read-out: endo.tta.18hr POD
[8] = iPSC-EC, 100.00 = highest concentration tested, read-out: endo.ttl.18hr POD
[9] = iPSC-EC tube formation, 18 hr, 0.00 µM control = 100.00, read-out: endo.mtl.18hr
[10] = iPSC-EC tube formation, 18 hr, 0.00 µM control = 100.00, read-out: endo.tlps.18hr
[11] = iPSC-EC tube formation, 18 hr, 0.00 µM control = 100.00, read-out: endo.tta.18hr
[12] = iPSC-EC tube formation, 18 hr, 0.00 µM control = 100.00, read-out: endo.ttl.18hr

With `COc1cc(Cl)c(-c2cc(Cl)ccc2Cl)cc1Cl` [4-OMe PCB52] the activity at 0.01 µM [1] was 120%, the activity at 0.01 µM [2] was 104% and the activity at 0.01 µM [3] was 141%. The activity at 0.01 µM [4] was 150%, the activity at 0.1 µM [1] was 112% and the activity at 0.1 µM [2] was 113%. The activity at 0.1 µM [3] was 116%, the activity at 0.1 µM [4] was 123% and the activity at 1 µM [1] was 119%. It also gave an activity at 1 µM [2] of 114%, an activity at 1 µM [3] of 121% and an activity at 1 µM [4] of 132%. For the same compound, the activity at 10 µM [1] was 114%, the activity at 10 µM [2] was 131% and the activity at 10 µM [3] was 136%. The activity at 10 µM [4] was 142%, the activity at 100 µM [1] was 49.4% and the activity at 100 µM [2] was 15.9%. It also gave an activity at 100 µM [3] of 6.4%, an activity at 100 µM [4] of 8.34% and a minimal effective concentration [5] of 52 µM. For the same compound, the minimal effective concentration [6] was 56 µM, the minimal effective concentration [7] was 51.6 µM and the minimal effective concentration [8] was 54.7 µM.
`Clc1cc(Cl)c(-c2cc(Cl)c(Cl)cc2Cl)cc1Cl` [PCB153] was tested, and the activity at 0.01 µM [1] was 121%, the activity at 0.01 µM [2] was 80.7% and the activity at 0.01 µM [3] was 103%. For the same compound, the activity at 0.01 µM [4] was 116%, the activity at 0.1 µM [1] was 119% and the activity at 0.1 µM [2] was 104%. It also gave an activity at 0.1 µM [3] of 124%, an activity at 0.1 µM [4] of 134% and an activity at 1 µM [1] of 122%. It also gave an activity at 1 µM [2] of 111%, an activity at 1 µM [3] of 111% and an activity at 1 µM [4] of 123%. It also gave an activity at 10 µM [1] of 135%, an activity at 10 µM [2] of 202% and an activity at 10 µM [3] of 148%. For the same compound, the activity at 10 µM [4] was 157%, the activity at 100 µM [1] was 55.1% and the activity at 100 µM [2] was 21.1%. The activity at 100 µM [3] was 20.2%, the activity at 100 µM [4] was 22.9% and the minimal effective concentration [5] was 0.007 µM. For the same compound, the minimal effective concentration [6] was 1.93 µM, the minimal effective concentration [7] was 3.83 µM and the minimal effective concentration [8] was 0.58 µM.
`Clc1ccc(Cl)c(-c2cc(Cl)ccc2Cl)c1` [PCB52] gave an activity at 0.01 µM [9] of 109%, an activity at 0.01 µM [10] of 89.1% and an activity at 0.01 µM [11] of 152%. For the same compound, the activity at 0.01 µM [12] was 156%, the activity at 0.1 µM [9] was 111% and the activity at 0.1 µM [10] was 140%. The activity at 0.1 µM [11] was 108%, the activity at 0.1 µM [12] was 116% and the activity at 1 µM [9] was 107%. The activity at 1 µM [10] was 132%, the activity at 1 µM [11] was 125% and the activity at 1 µM [12] was 133%. For the same compound, the activity at 10 µM [9] was 110%, the activity at 10 µM [10] was 108% and the activity at 10 µM [11] was 119%. For the same compound, the activity at 10 µM [12] was 120%, the activity at 100 µM [9] was 79% and the activity at 100 µM [10] was 83.4%. For the same compound, the activity at 100 µM [11] was 89.5%, the activity at 100 µM [12] was 95.5% and the minimal effective concentration (iPSC-EC tube formation, 18 hr, top concentration 100.00 µM, read-out: endo.mtl.18hr POD) was 79.8 µM. For the same compound, the minimal effective concentration (iPSC-EC tube formation, 18 hr, top concentration 100.00 µM, read-out: endo.tlps.18hr POD) was 100 µM, the minimal effective concentration (iPSC-EC tube formation, 18 hr, top concentration 100.00 µM, read-out: endo.tta.18hr POD) was 100 µM and the minimal effective concentration (iPSC-EC tube formation, 18 hr, top concentration 100.00 µM, read-out: endo.ttl.18hr POD) was 100 µM.
